Measured values: patent publication US11413278B2, “Compounds and methods for promoting stress resistance” (priority 2015, dated 2022)
Entries after “also recorded” stand apart in the source; their conditions may differ. Like-named read-outs stand apart in the source and are kept apart here.

Legend:
WI-38 cells [1] = conditions: for EC50: read-out: Est. ED50, dose response 0.6-20 μM, H2O2-resistance; for Assay 1: H2O2-resistant: YES/NO, if NO, possibly due to repeated freezing/thawing of stocks
human PARP1 = molecular target: T1, human PARP1 (Homo sapiens, UniProt P09874); assay: PARP inhibitor assay (HT Fluorescent Homogeneous PARP Inhibition Assay Kit); assay type: biochemical; conditions: 10 μM, in vitro
T1 construct: purchased Trevigen
T1 sequence (P09874 whole entry): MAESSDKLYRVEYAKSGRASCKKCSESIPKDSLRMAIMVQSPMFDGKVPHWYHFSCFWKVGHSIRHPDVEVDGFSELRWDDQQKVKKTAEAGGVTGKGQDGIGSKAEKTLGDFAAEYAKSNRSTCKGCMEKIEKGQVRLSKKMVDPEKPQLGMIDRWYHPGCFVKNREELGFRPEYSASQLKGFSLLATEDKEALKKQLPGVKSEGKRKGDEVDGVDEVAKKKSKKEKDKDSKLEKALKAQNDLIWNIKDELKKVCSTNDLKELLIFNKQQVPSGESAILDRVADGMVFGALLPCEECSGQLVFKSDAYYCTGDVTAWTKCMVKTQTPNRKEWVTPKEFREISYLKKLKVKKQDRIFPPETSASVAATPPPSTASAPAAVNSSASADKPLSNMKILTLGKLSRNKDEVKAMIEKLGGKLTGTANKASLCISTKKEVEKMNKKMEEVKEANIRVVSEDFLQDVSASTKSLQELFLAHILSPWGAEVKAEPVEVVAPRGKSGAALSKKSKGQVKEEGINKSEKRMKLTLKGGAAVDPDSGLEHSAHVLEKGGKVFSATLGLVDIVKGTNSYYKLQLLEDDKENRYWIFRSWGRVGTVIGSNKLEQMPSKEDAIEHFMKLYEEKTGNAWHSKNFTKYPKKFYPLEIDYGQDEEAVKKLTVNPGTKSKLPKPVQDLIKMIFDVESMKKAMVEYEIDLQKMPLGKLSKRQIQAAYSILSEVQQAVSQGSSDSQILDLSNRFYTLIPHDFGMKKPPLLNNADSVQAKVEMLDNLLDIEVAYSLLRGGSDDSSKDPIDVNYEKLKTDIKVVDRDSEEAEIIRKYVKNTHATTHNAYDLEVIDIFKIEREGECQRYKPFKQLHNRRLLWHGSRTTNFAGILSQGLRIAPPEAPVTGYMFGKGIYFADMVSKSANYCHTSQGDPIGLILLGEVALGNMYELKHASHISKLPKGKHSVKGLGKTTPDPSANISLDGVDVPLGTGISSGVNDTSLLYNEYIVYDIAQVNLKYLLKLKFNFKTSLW
Protocol: (§1) The assay was performed with the HT Fluorescent Homogeneous PARP Inhibition Assay Kit (Trevigen), following manufacturer's instructions. Briefly, nicotinamide adenine dinucleotide, human PARP1 and activated-DNA solution was added onto a 96-well plate. 54 repurchased small molecules, at 10 μM final concentration, were introduced onto the 96-well assay plate and incubated in a humid chamber at room temperature for 30 min in dark. Cycling mixture, with resazurin and cycling enzyme diaphorase, was then added and incubated further for 1 hr in dark. Reaction was terminated by adding the stopping buffer.
as §1, with “(Trevegen),” for “(Trevigen),”, “stopped” for “terminated”

WI-38 cells [2] = assay: MMS resistance assay; assay type: cell-based, human; conditions: YES/NO; for Assay 3: MMS-resistant: * indicates partial; for Assay 5: Triple resistant: H2O2, cadmium and MMS
Protocol: (§2) For many stress conditions tested previously, one significant correlation to longevity is the cellular resistance to H2O2 or CdCl2. Applicants then tested these small molecules, at five different final concentrations (0.25 μM to 20 μM), for cadmium and MMS resistance in WI-38 cells.
(§3) The setups on 384-well plates and incubation times were the same as for H2O2 until the time of incubation with the stressors, which was 12 hours for both cadmium and MMS assays. Applicants tested several conditions, including conditions used to assay fibroblasts from long-lived animals (Salmon et al., 2005). These conditions produced better results with the positive controls (KEAP1 and AKT1 siRNAs) in the MMS assay. Thus, for MMS, the cells were shifted from growth media—OptiMEM+10% FBS, to DMEM (Gibco)+2% BSA (no serum) just before adding small molecules, which occurred 24 hours before MMS addition.
(§4) Isolated small molecules were tested for MMS and cadmium resistance twice in two independent assays. Each small molecule was analyzed at five different concentrations (0.25 μM to 20 μM final concentration), with technical triplicates for each dose. Data were analyzed using a global variance t-test.

WI-38 cells [3] = assay: CdCl2 (cadmium) resistance assay; assay type: cell-based, human; conditions: YES/NO; for Assay 2: Cadmium-resistant: * indicates partial
Protocol: as §2, §3, §4

C. elegans = C. elegans lifespan assays (liquid and plate); assay type: in vivo, Caenorhabditis elegans; conditions: for ILS at 66 µM: Caenorhabditis elegans
[4] = system: human dermal fibroblast (HDF) primary cells; assay: H2O2-resistance in primary human dermal fibroblasts; assay type: cell-based; conditions: YES/NO
[5] = system: PC12 cells expressing poly(Q)103-Htt-EGFP; assay: Poly(Q) toxicity & viability analysis (cellular model of Huntington's disease); assay type: cell-based, rat; conditions: 10 uM; YES/NO
Protocol: Viability assays were performed as described before (Aiken et al., 2004). PC12 cells that stably express the inducible poly(Q)103-Htt-EGFP were grown in culture. […] Cell viability was analyzed 48 hrs later by measuring ATP content with CellTiter-Glo.
Toxic protein aggregation is a key feature of many age-related neurodegenerative diseases, including Alzheimer's and Huntington's disease (Caughey and Lansbury, 2003; Ross and Poirier, 2004). A number of animal models (Phillips et al., 2009) and cell models (Schlachetzki et al., 2013) have been established to study these diseases. For this purpose, PC12 rat pheochromocytoma cells display neuronal features and produce neurotransmitters and have been used extensively to study neuronal phenotypes, including synaptic transmission and neurological diseases. […] In this model, induced expression of poly(Q)103-Htt-EGFP could lead to the formation of aggregates and exert substantial toxicity in cells.

WI-38 cells [6] = conditions: Assay 8(k); without H2O2, at 10 uM
Protocol: WI-38 cells were seeded on 384-well plates for 24 hrs and then incubated with small molecules for 24 hrs. […] Images were collected on an INCell Analyzer 2000 (GE) and analyzed with the Developer software.

FOXO3 = assay: qPCR analysis of FOXO3-regulated genes; assay type: cell-based, human; conditions: Homo sapiens, 24 h, Assay 10(m), at 10 uM, qPCR
Protocol: (§5) For qPCR analysis, WI-38 cells were treated with small molecules (at 10 μM) (biological quadruplicates) for 24 hrs and processed for RNA isolation and reverse transcription (RT) with the Cells-to-Ct Kit (Life Technologies), following manufacturer's instructions. RT products were diluted with H2O and used for qPCR analysis on an ABI 7300 system (Life Technologies) (technical triplicates). Relative expression levels of target genes were normalized to the genes B2M, PPIA and GAPDH. To knock down the expression of FOXO3 or NRF2, WI-38 cells were transfected, using the RNAiMAX reagents (Life Technologies), with siRNA oligos (at 10 nM final concentration, 10 ml culture medium) for FOXO3 (Life Technologies) or NRF2 (Integrated DNA Technologies) on 10-cm petri dishes for 36 hrs, and then detached and aliquoted onto 96-well (for qPCR analysis) or 384-well plates (for H2O2-stress treatment). ˜24 hrs later, small molecules were introduced and incubated with cells for 24 hrs. Cells were then either processed with the Cells-to-Ct Kit to prepare RT products for qPCR analysis or subjected to H2O2 (700 μM) for 3 hrs and assayed for viability. The knockdown efficiency of FOXO3 or NRF2 was checked at 36 hrs post-transfection and at the end as well.
(§6) For qPCR analysis, WI-38 cells were treated with small molecules (at 10 μM) (biological quadruplicate) for 24 hrs and processed for RNA isolation and reverse transcription (RT) with the Cells-to-Ct Kit (Life Technologies), following manufacturer's instructions. RT products were diluted with H2O and used for qPCR analysis on a LightCycler 480 system (Roche) (technical triplicates). Relative expression levels of target genes were normalized to the genes B2M, PPIA and GAPDH. To knock down the expression of FOXO3 or NRF2, WI-38 cells were transfected with siRNA oligos (at 10 nM final concentration) for FOXO3 (Life Technologies) or NRF2 on 10-cm petri dish for 36 hrs, and then detached and aliquoted onto 96-well plates. ˜24 hrs later, small molecules were introduced and incubated with cells for 24 hrs. Cells were then processed with the Cells-to-Ct Kit to prepare RT products for qPCR analysis. The knockdown efficiency of FOXO3 or NRF2 was checked at 36 hrs post-transfection and at the end as well.
Many perturbations that increase lifespan and stress resistance in animals do so in a FOXO-dependent fashion (Kenyon, 2010c). Humans have several FOXO genes, but FOXO3, which promotes stress resistance in mammalian cell culture (Kops et al., 2002; Nemoto and Finkel, 2002; Tran et al., 2003), is the one that has been linked to exceptional longevity in humans (Anselmi et al., 2009; Flachsbart et al., 2009; Li et al., 2009; Pawlikowska et al., 2009; Soerensen et al., 2010; Willcox et al., 2008). FOXO1, in contrast, appears to be responsible for some symptoms of diabetes in mouse models (Cheng and White, 2011). For this reason, applicants have focused on analyzing potential ability of our small molecules to activate FOXO3. […] Another 4 molecules (Gr-7A, Gr-7C, O12 and O23) could induce robust expression (greater than 1.5-fold) of at least 2 FOXO3 target genes.

NRF2 = assay: qPCR analysis of NRF2-regulated genes; assay type: cell-based, human; conditions: Homo sapiens, 24 h, Assay 12(o), at 10 uM, qPCR
Protocol: as §5, §6
NRF2/SKN-1, the oxidative stress and xenobiotic phase 2 detoxification protein, can extend animal lifespan (Sykiotis and Bohmann, 2008; Tullet et al., 2008). Applicants analyzed these small molecules for their ability to increase the expression of NRF2-regulated genes, including HMOX1 (heme oxygenase (decycling) 1; anti-oxidant), NQO1 (NAD(P)H dehydrogenase, quinone 1; phase 2 detoxification enzyme), GCLC (glutamate-cysteine ligase, catalytic) and GSTM1 (glutathionine S transferase) (Hur and Gray, 2011; Suzuki et al., 2013).

[7] = Assay 2(z), 1.0 × 10^9 bacteria/ml, wild type + FuDR (2012 July), read-out: Lifespan assay in liquid
[8] = Assay 3(aa), 2.5 × 10^9 bacteria/ml, wild type + FuDR, read-out: Lifespan assay in liquid
[9] = Assay 4(ab), 2.0 × 10^10 bacteria/ml, CF512 worms, no FuDR, read-out: Lifespan assay on plates
[10] = Assay 5(ac), 1.0 × 10^11 bacteria/ml, CF512 worms, no FuDR, read-out: Lifespan assay on plates
[11] = Assay 6(ad), 2.0 × 10^10 bacteria/ml, CF512 worms, no FuDR, read-out: Lifespan assay on plates
[12] = Assay 7(ae), 1.0 × 10^11 bacteria/ml, CF512 worms, no FuDR, read-out: Lifespan assay on plates
[13] = read-out: Induction of NRF2-regulated genes: HMOX1 normalized fold-change

| Structure (SMILES) | EC50 (WI-38 cells [1]) | Inhibition of PARP1 (human PARP1) | Assay 1: H2O2-resistant (WI-38 cells [1]) | Assay 3: MMS-resistant (WI-38 cells [2]) | Assay 5: Triple resistant (WI-38 cells [2]) | Assay 4: H2O2- & Cd-resistant (WI-38 cells [3]) | Assay 2: Cadmium-resistant (WI-38 cells [3]) | ILS at 66 µM (C. elegans; [7]) | ILS at 66 µM (C. elegans; [8]) | ILS at 66 µM (C. elegans; [9]) | Assay 6: H2O2-resistant, at 10 uM, human dermal fibroblast (HDF) primary cells [4] | ILS at 66 µM (C. elegans; [10]) | ILS at 66 µM (C. elegans; [11]) | ILS at 66 µM (C. elegans; [12]) | fold induction at 10 µM (NRF2; [13]) | other results |
| --- | --- | --- | --- | --- | --- | --- | --- | --- | --- | --- | --- | --- | --- | --- | --- | --- |
| CN1CCC=C(Cc2nnc(O)c3ccccc23)C1 [Gr-2D] | 3.42 µM | inhibitors of PARP1 |  |  |  |  |  |  |  |  |  |  |  |  |  |  |
| CNS(=O)(=O)c1cc(-c2nnc(O)c3ccccc23)ccc1C [Gr-2A] | 3.05 µM | inhibitors of PARP1; also recorded: PARP inhibitors | YES | YES | YES | YES | YES | 22.7% | 10.8% | 11.4% | YES |  |  |  |  |  |
| O=C1NC(=O)c2cccc3cccc1c23 [O7] | 5.5 µM | confirmed as PARP inhibitors | YES | YES | YES | YES | YES | 19.7% | 26% | 33.7% | YES | 10.2% | 5.8% | -10.5% |  | Assay 20: Huntington's poly-Q toxicity attenuation [5]: YES; Lifespan extension of C. elegans (C. elegans; across independent trials): 10%-34%; Trials with lifespan extension (C. elegans; positive of total trials): 4 of 4 |
| CO/C(O)=C1\C(C)=NC2=C(C(=O)CC(c3cccs3)C2)C1c1ccc(F)c(F)c1 (stereo not drawn) [O5] | 20 µM |  | YES | YES | YES | YES | YES | 48.9% | 18.9% | 46.2% | YES | 46.3% | 10.2% | 32% | 2.15 | PI cell-death imaging without H2O2 (indicating potential toxicity) (WI-38 cells [6]): YES; fold induction at 10 µM (FOXO3; read-out: Induction of FOXO3-regulated genes: GADD45A normalized fold-change): 0.45; fold induction at 10 µM (FOXO3; read-out: Induction of FOXO3-regulated genes: SOD2 normalized fold-change): 0.77 |
| Cc1sc2nc(SCC(=O)N3CCOCC3)nc(O)c2c1C [O3] | 20 µM | inhibitors of PARP1; also recorded: PARP inhibitors | YES | YES | YES | YES | YES | 14.1% | 14.8% | 15.9% | YES | 12% | 8.7% | 1.4% |  | fold induction at 10 µM (NRF2; read-out: Induction of NRF2-regulated genes: NQO1 normalized fold-change): 1.21 |
| Oc1nnc(Cc2ccccc2)c2ccccc12 [Gr-2C] | 3.12 µM | inhibitors of PARP1; also recorded: PARP inhibitors | YES | YES | YES | YES | YES | 15.3% | 0.1% | 7.6% | YES |  |  |  | 1.23 | fold induction at 10 µM (FOXO3; read-out: Induction of FOXO3-regulated genes: TXNIP normalized fold-change): 1.2 |
